The values that follow come from patent US11254654B2, “Heterochromatin gene repression inhibitors” (The University of North Carolina at Chapel Hill, priority 2017, dated 2022).

Counter-ions that a name gives are not always drawn.

The subject of data set [1] is TC1 ES cells. Kind of data set: Whole cell histone modification levels, Western blot densitometry. The settings on record: 48 hrs with compound, normalized over total Histone H4. The data set is classed as cell-based. Here is the method: The ability to reduce global H3K9-me2 and -me3 levels with the novel HP1 inhibitors was previously examined (see FIG. 20). […] Oct4-GFP will be measured by flow cytometry, H3K9me3 enrichment by ChIP, and DNA methylation levels by bisulfite sequencing at 2, 4, and 6 days post RA addition output measurements. Expression and chromatin modifications will also be examined at other RA regulated genes such as […] using GAPDH as a control.
Referring to FIG. 20, TC1 ES cells were incubated 48 hrs with compound. Histones marks were measured by Western blot densitometry with the indicated antibody. The results were normalized over the total Histone H4 as a percentage of untreated controls.
For orientation: A western blot detects proteins with antibodies after separation by electrophoresis.

Data set [2] relates to HP1 heterochromatin pathway. Kind of data set: Small molecule high-throughput flow cytometry screen, CiA:Oct4 N118/N163 cells with rapamycin (csHP1α recruitment). In kind it is cell-based, mouse. The settings on record: 10 μM compound, + 6 nM rapamycin, 48 hrs. The source says:
The CiA:Oct4 recruitment system in mouse embryonic stem cells contains Gal4 and Zinc finger DNA binding arrays and a downstream nuclear eGFP gene in place of a single Oct4 allele as previously described (Hathaway et al., 2012). The CiA:Oct4 N118/N163 cell line containing viral integrations of N118 and N163 plasmids (N118-nLV EF-1α-Gal-FKBPx1-HA-PGK-Blast, N163-nLV EF-1α-HP1α (CS)-Frbx2(Frb+FrbWobb)-V5-PGK-Puro) was used for all experiments unless otherwise stated. The CiA:Oct4 N205 line containing the lentiviral construct N205 (N205-nLV EF-1α-ZFHD1-link-FKBP-HA <T2A> HP1αCS-Frbx2-V5-PGK-Blast) was used for shRNA experiments. CiA:Oct4 N118 was infected with the lentiviral construct N192 (N192-nLV Dual Promoter EF-1α-MCS-PGK-Puro HP1γ-(CS)-Frbx2(wobbmo)-V5) to yield the csHP1γ recruitment system CiA:Oct4 N118/N192. For orthogonal recruitment system, stable mESC cell line with blue fluorescent protein (BFP) reporter gene with tetracycline response elements (TRE) was generated by recombinase-mediated cassette exchange, by introducing the reporter cassette DNA in plasmid YR06 into a genetrap located on chromosome 15 at genome coordinates chr15:99941948 (Lienert et al. (2011) Nature Genetics 43(11): 1091-1097; Elling et al. (2017) Nature 550(7674): 114-118). […]
Flow cytometry was performed using an Intellicyt iQue Screener and analyzed with FlowJo software. […]

Data set [3] has as its system csHP1γ. Kind of data set: csHP1γ inhibition assay, CiA:Oct4 N118/N192 cells. Particulars: 5 μM, 48 hrs, + 6 nM rapamycin. The data set is classed as cell-based, mouse.
Description: Day 0, CiA:Oct4 N118/N192 cells were grown and cultured in 96 well plate format with 10,000 cells seeded per well. Day 1, media was aspirated and replaced with fresh ES media containing 5 μM of top screen compounds and +/−6 nM rapamycin. Day 2, media was aspirated and replaced with fresh ES media containing 5 μM of top screen compounds and +/−6 nM rapamycin. Day 3, wells were aspirated and washed with PBS prior to sample preparation and analysis by flow cytometry.
After 48-hrs of 5 μM compound treatment with and without rapamycin, the % GFP (+) populations were determined by flow cytometry analysis.
Flow cytometry analysis was used to determine the % GFP (+) population. Data was converted to % inhibition for the +rapamycin samples. Experiments were performed in biological triplicate. (n≥3) (p≤0.05*, 0.01**).
The test system of data set [4] is CiA:Oct4 N118/N163 cells. Kind of data set: Minus rapamycin counter screen for toxicity and cell differentiation. In kind it is cell-based. Particulars: 10 μM compound, no rapamycin, 48 hrs. The protocol: Day 0, CiA:Oct4 N118/163 cells were grown in ES media and seeded at a density of 10,000 cells per well (100,000 cells/mL) into gelatin coated 96 well plates. Day 1, media was aspirated and replaced with […] fresh ES media containing +/−6 nM rapamycin and 10 μM dilution of compounds from the EpiG compound set. Day 2, 100 μL fresh ES media containing +/−6 nM rapamycin and 10 μM dilution of compounds from the EpiG compound set was added as on Day 1. Day 3, the media was aspirated out of the wells and the cells were washed with PBS and trypsinized using 0.25% trypsin-EDTA. Trypsin was quenched with serum. Cells were resuspended by pipetting to prepare the plates for flow cytometry analysis.
Flow cytometry was performed using an Intellicyt iQue Screener and analyzed with FlowJo software. Cell populations were gated based on forward and side scatter area. Single cell populations were isolated using forward scatter area by forward scatter height gating. Dead or dying cells that equally fluoresced in the GFP and APC channels upon excitation with 488 nm laser were omitted as autofluorescent, and the remaining cells were gated into GFP (−) and GFP (+) populations. […] Statistics were performed using standard T-test analysis.
The CiA:Oct4 N118/N163 recruitment system also functions as an internal counter screen for toxicity and cell differentiation in the absence of rapamycin recruited csHP1α. […]
(A counterscreen serves to expose hits that act by an unwanted route or on another target.)

On to `COc1cc2nc(N3CCCC3)nc(N[C@H]3CCCNC3)c2cc1OC` [compound 1, (S)-6,7-Dimethoxy-N-(Piperidin-3-yl)-2-(Pyrrolidin-1-yl)Quinazolin-4-Amine Trifluoroacetic Acid Salt], for which the “Bulk di- and tri-H3K9 methylation” value in data set [1] was “significantly block”. Also, the “GFP expression / % GFP (+) population despite csHP1α recruitment” value in data set [2] is “increased expression of GFP”. In data set [3], the “Inhibition of csHP1γ-mediated repression of CiA:Oct4 locus” value is “most potent inhibitors of csHP1γ”. Further, the “GFP positive population levels without csHP1α recruitment” value in data set [4] is “did not decrease GFP positive population levels”.
